Molecules are shown by their SMILES.

The text below walks through data of US6403619B1, “Method for controlling cell necrosis or apoptosis” (University of Kentucky Research Foundation, priority 1998, dated 2002).

The subject of data set [1] is cells. Put plainly: Survival under oxidative genotoxic stress caused by staurosporin. The following applies: 50 μM in medium compared with none; different concentrations of staurosporin; FIG. 19. The format is cell-based. The procedure: These experiments describe studies on oxidative genotoxic stress, caused by staurosporin. Cells were contacted with different concentrations of staurosporin, and were cultured in medium that either contained no nicotinamide or 50 μM nicotinamide.

Data set [2] relates to cells. In words: DNA integrity following genotoxic stress induced by MNNG. It counts as cell-based. The note with it: high levels (500 micromolar) compared with normal levels (50 micromolar), FIG. 12A. The protocol:
The DNA repair proficiency as a function of NAD content has been assessed also by a technique called a “comet assay.” In a comet assay (O. Ostling and K. J. Johanson, Biochem. Biophys. Res. Commun. 123: 291 (1984); P. L. Olive and J. P. Banath, Exp. Cell Res. 221: 19 (1995)), cells are plated out after embedding into liquid agarose on a carrier and lysed in situ after formation of an agarose gel. The DNA of the individual cells is then separated in situ in an electric field. Damaged DNA containing strand breaks migrates away from the cell nucleus due to its smaller size and this migration results in an image where the nucleus appears as the head of the comet and the broken DNA appears as tail of the comet. The more degraded the genomic DNA is, the greater the amount of migration-capable DNA and the longer the “comet tail.”

In another data set the test system is p53. The note with it: high levels of the agent; in the absence of and following genotoxic stress; FIG. 12B.
Another data set deals with Epithelial cells. In words: Necrosis and apoptosis of epithelial cells under MNNG genotoxic stress. The format is cell-based. The procedure:
Epithelial cells were subjected to genotoxic stress with the alkylating agent N-methyl-N^1-nitro-N-nitrosoguanidine, or “MNNG” as referred to supra and hereafter. Epithelial cells were cultured in the presence of either no MNNG, 10 μg/mL MNNG, or 20 μg/mL of MNNG, in medium containing either 0, 50 μM or 500 μM nicotinamide. Percent necrosis and apoptosis was studied over time, i.e., for 48 hours. […] Nicotinamide is converted to NAD, but as indicated, none was added in the experiments depicted in 17A and 17D.

The subject of the next data set is human skin fibroblasts. In words: Bioconversion of pro-NAD agents to NAD by skin fibroblasts in culture. The note with it: FIG. 11. The format is cell-based.
A short description of data set [3]: Signs of toxicity after topical application, hairless mouse model. The format is in vivo. The following applies: topical 1% cream, experiments of FIGS. 15 and 16. The procedure: (§1) Based on evaluation of pro-NAD agents, proof of principle experiments for elevation of skin cell NAD content by topical delivery were performed using a hairless mouse model. In brief, tetradecylnicotinate was used for the initial studies. In the study three daily topical applications of 1% tetradecylnicotinate cream to the back of the animals and no cream were applied to the abdomen. Immediately following the third application, the skin from the back and abdomen were analyzed for NAD content. Test samples of skin were frozen in liquid nitrogen and powdered by mechanical means. NAD content was assessed as described previously (Jacobson, E L, and Jacobson, M K Meth Enzymol 280, 221-230, 1997; Jacobson, E L et al., J Cell Physiol 99, 417-426, 1979). The NAD assay is based on the principle of enzymic cycling between oxidized and reduced states, in which NAD is rate-limiting for a series of amplification reactions. Total protein was assayed by the Bradford assay.
(§2) In another experiment, the effect of the number of daily application of 1% tetradecylnicotinate cream was examined. Again, application was made to the back of the animal and the abdomen of each animal served as control.

The nature of data set [4]: Local vasodilation following topical application of cream (assesses rate of hydrolysis to nicotinate). The following applies: for duration of vasodilation / onset of vasodilation: topical application of a cream containing 0.05%. It counts as in vivo. The text has this: The next issue considered was the rate of hydrolysis of topically applied pro-NAD agents to nicotinic acid such that conversion to NAD can be completed by the pathway shown in FIG. 11. The rates of hydrolysis of a pro-NAD agent following topical application can be assessed by evaluation of local vasodilation following topical application of a pro-NAD agent. […] Experiments have compared the absence or presence of vasodilation (and the time course of vasodilation when present) for a number of the pro-NAD agents shown in FIG. 13. For example, application of a cream containing 0.05% hexylnicotinate results in vasodilation with onset at approximately 10 minutes and duration of approximately 90 minutes. A similar application of octylnicotinate results in an onset of vasodilation at approximately 15 minutes with duration of 360 minutes. […] These experiments indicate that tetradecylnicotinate is released very slowly following application. Two factors are likely involved in the rate of hydrolysis of topically applied pro-NAD agents, the rate of departure from the stratum corneum and the rate of hydrolysis by esterases present in the epidermal and dermal layers of the skin.

A further data set relates to NAD content of skin. Put plainly: Skin NAD content after topical application, hairless mouse model. The format is in vivo. The protocol: as §1, §2
A short description of data set [5]: Octanol/water partition coefficient. The format is physicochemical. The note with it: extrapolated from Po/w values of the shorter esters; FIG. 14. The text has this: The first issue considered was the physical-chemical properties of the pro-NAD agents most desirable for topical application. The nicotinic acid molecule may not be optimal because it may be too polar to be effectively delivered to skin cells topically. Molecules that are too polar may not effectively partition into the apolar stratum corneum layer of skin and following passage across the stratum corneum, it would be expected to rapidly enter the systemic circulation. To evaluate the potential of these pro-NAD agents to partition into the stratum corneum, the octanol/water partition coefficients for the methyl, eythl-, butyl-, hexyl-, and octyl-esters of nicotinate were experimentally determined.
The octanol/water partition coefficient was determined by dissolving a known amount of pro-NAD agent in water and then mixing the aqueous compound with a known volume of octanol. After mixing for a period of 1 to 18 hours, aliquots of the water phase were analyzed by HPLC for the amount of remaining pro-NAD agent. The partition coefficient (P) was calculated from the following equation:
log Po/w=log10((Co−C)CVo))
where Co is the initial concentration in water and C is the concentration after partitioning. Vw and Vo represent the volume of water and octanol phases respectively.

Data set [6] has as its system Malignant epithelial cells. In words: Doubling of malignant epithelial cell populations under PARP (tankyrase) inhibition. The format is cell-based. The note with it: 0.1 M; after 10 weeks; compared with control grown without it; FIG. 20. The protocol:
Malignant epithelial cells were grown in the presence of 0.1 M benzamide, which is known to inhibit all PARPs. The doubling of the cell populations was observed over a period of time, and compared to a control, which was grown in the absence of benzamide.

Setting [7] is: varying number of daily applications of 1% cream to the back, FIG. 16.

Procedure for human skin fibroblasts: A series of experiments were performed to determine the possible classes of pro-NAD agents that may be used for the elevation of skin cell NAD content by topical application. Any compound that can be converted to NAD is referred to here as a “pro-NAD” agent.
Procedure for p53: Briefly, cells were grown in control or suboptimal niacin media as described in Example 1 above, resulting in cells with normal or low NAD content. The protein of the cells was then extracted and portions of the extract were separated by SDS-polyacrylamide gel electrophoresis (SDS-PAGE) and p53 protein content was determined by immunoblotting (western blotting). […] FIG. 9B compares the relative content of p53 following genotoxic stress caused by the alkylating agent MNNG in cells with a low or normal NAD content.

As to `NC(=O)c1cccnc1` [nicotinamide], in the data set on cells [1], the “rate of cell death (percentage survival)” value is recorded as “rate of cell death is decreased significantly”. The DNA integrity entry in the data set with cells [2] is “decreased DNA integrity”. Moreover, the “p53 levels / p53-signaling response” value with p53 is recorded as “abnormally high levels of p53”. Further, the “response (necrosis, apoptosis) to MNNG induced genotoxic shock” value in the data set on Epithelial cells (500 μM in medium, MNNG 10 or 20 μg/mL, 48 hours, FIGS. 17C and 17F) was “Normal responses were not established”. Moreover, the “involvement in cell death pathways (cellular morphology over time)” value in the data set with Epithelial cells (none, 50 μM or 500 μM in medium, FIGS. 18A-18D) is listed as “involved in cellular necrosis pathways much more than in apoptosis pathways”. For the same compound, the “bioconversion to NAD” value in the data set on human skin fibroblasts is “can be bioconverted to NAD”.
As for `CCCCCCCCCCCCCCOC(=O)c1cccnc1` [tetradecylnicotinate], in data set [3], the signs of toxicity entry was “in no case were any signs of toxicity observed”. The vasodilation result in [4] (similar topical application of cream (0.05%)) is listed as “does not result in vasodilation”. In addition, in the data set on NAD content of skin (three daily applications of 1% cream to the back, FIG. 15), the “NAD content of skin removed from the abdomen (no cream applied)” value was “not increased”. Besides, in the data set on NAD content of skin (three daily topical applications of 1% cream to the back, back skin, FIG. 15), the “skin NAD content relative to control animal treated with base cream only” value is 143%. In the data set with NAD content of skin (setting [7]), the “NAD content of skin removed from the back” value is on record as “increased as a function of the number of daily applications” and the “NAD content of the abdomen (control site)” value is listed as “did not increase”. Further, the “properties for partitioning into the stratum corneum (Po/w predicted by extrapolation)” value in [5] is recorded as “favorable properties for partitioning into the stratum corneum”.
Turning to `O=C(O)c1cccnc1` [nicotinic acid], the “bioconversion to NAD” value with human skin fibroblasts was “can be bioconverted to NAD”.
For `CCCCCCCCCCCCCCCCCCOC(=O)c1cccnc1` [octadecylnicotinate], in [5], the “properties for partitioning into the stratum corneum (Po/w predicted by extrapolation)” value is recorded as “favorable properties for partitioning into the stratum corneum”.
As to `CCCCCCOC(=O)c1cccnc1` [hexylnicotinate], in data set [4], the duration of vasodilation result is reported as “approximately 90 minutes” and the onset of vasodilation entry is listed as “approximately 10 minutes”.
The corresponding values for `CCCCCCCCOC(=O)c1cccnc1` [octylnicotinate] are 360 min and “approximately 15 minutes”.
On to `NC(=O)c1ccccc1` [benzamide], for which the “doubling of the cell populations” value in data set [6] is “stopped doubling”.
